From patent publication US10672502B2, “Methods for determining protein structure using a surface-selective nonlinear optical technique” (Biodesy, Inc., priority 2015, dated 2020)
Where two headings read alike, the source gives them in different places.

System: dihydrofolate reductase (DHFR)
Settings: 1 uM TMP
Procedure: Immediately before applying DOPC/DGS NTA (Ni) lipids, clean microscope slides with Piranha wash for 20 minutes. Rinse 3× with diH2O in a slide staining vessel. Dry slides with compressed Nitrogen. Assemble SHG wells by attaching adhesive gaskets to Piranha-cleaned slides (i.e., 16 wells per slide containing 10-20 μl volume). Use an assembly jig to align gaskets, carefully lay slide into jig and press firmly. Dilute DOPC/DGS NTA (Ni) lipid prep 1:1 with PBS or TBS buffers. 100 mM NaCl is required to reduce hydrostatic charge of the glass slide and enable the supported lipid bilayer (SLB) to form. Pipet 10-20 μL of diluted DOPC/DGS NTA (Ni) lipid into the wells of the slide and incubate for 5 minutes at room temperature. Wash the wells by submersing the slide in buffer bath (PBS or TBS) and agitating with a 200 μL pipettor taking care not to introduce air into the wells at any time. Exchange the entire volume of buffer in the bath with fresh buffer and repeat the washing step 2 more times. Add a 1:1 volume of 100 mM NiCl2 solution to all wells and incubate for 10 minutes at room temperature. Wash the wells by submersing the slide in buffer bath (PBS or TBS) and agitating with a 200 μL pipettor. Exchange the entire volume of buffer in bath with fresh buffer and repeat the washing step 2 more times. […]

For `COc1cc(Cc2cnc(N)nc2N)cc(OC)c1OC` [TMP, trimethoprim], the “decrease in baseline signal (SHG % change, Izzz)” value (cysteine-labeled DHFR mutant tethered to Ni/NTA supported lipid bilayer via His tag at the C-terminus) was “approximately 90%” and the “decrease in baseline signal (SHG % change, Izzz)” value (cysteine-labeled DHFR mutant tethered to Ni/NTA supported lipid bilayer via His tag at the N-terminus, FIG. 14A) was “roughly 70%”.
